The target of the assay is human PAD4 (hPAD4) (Homo sapiens (Human), UniProt Q9UM07). Briefly: RFMS Human PAD4 Functional Assay 1. Type of assay: biochemical. The following applies: RFMS assay 1; 5 nM hPAD4, 250 μM BAEE substrate, 50 μM calcium, 37° C. A digest of the protocol:
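Citrullination product read by RapidFire triple-quad MRM against a modified-citrulline internal standard, after TCA stop and 30 min phenyl glyoxal step at 37 °C. Reaction: 250 μM BAEE, 5 nM human PAD4, 90 min at 37 °C, pH 7.5 HEPES buffer with 50 μM calcium and 5 μM TPEN, following 30 min compound–enzyme preincubation (max 50 μM).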
Chain of human PAD4 (hPAD4) (Q9UM07 whole entry): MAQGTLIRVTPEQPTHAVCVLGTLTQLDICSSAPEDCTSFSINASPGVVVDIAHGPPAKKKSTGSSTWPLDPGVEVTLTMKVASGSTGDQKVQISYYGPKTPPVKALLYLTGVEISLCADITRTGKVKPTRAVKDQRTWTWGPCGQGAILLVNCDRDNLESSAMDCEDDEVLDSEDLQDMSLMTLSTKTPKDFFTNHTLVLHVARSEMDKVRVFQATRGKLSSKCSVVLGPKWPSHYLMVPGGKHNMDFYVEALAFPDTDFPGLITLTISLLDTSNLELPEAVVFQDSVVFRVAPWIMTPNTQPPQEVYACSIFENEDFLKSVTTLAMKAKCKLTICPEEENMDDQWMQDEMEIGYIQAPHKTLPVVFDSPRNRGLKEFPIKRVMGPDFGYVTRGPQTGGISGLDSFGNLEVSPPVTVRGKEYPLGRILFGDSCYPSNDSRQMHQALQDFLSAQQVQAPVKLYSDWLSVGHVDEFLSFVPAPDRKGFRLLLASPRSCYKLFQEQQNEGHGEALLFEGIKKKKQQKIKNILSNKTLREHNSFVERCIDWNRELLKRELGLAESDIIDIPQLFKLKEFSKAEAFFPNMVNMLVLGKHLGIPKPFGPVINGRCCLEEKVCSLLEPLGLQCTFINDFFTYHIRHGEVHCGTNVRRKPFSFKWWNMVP
A word on the IC50: it is the concentration needed to halve the response being measured. Regarding `COc1cc(C(=O)N2CCC[C@@H](N)C2)cn2nc(-c3cc4ccc(-c5cccc(CO)c5)cc4n3CC3CC3)c(C)c12` [Example 227, [3-(2-{6-[(3R)-3-Aminopiperidine-1-carbonyl]-4-methoxy-3-methylpyrazolo[1,5-a]pyridin-2-yl}-1-(cyclopropylmethyl)-1H-indol-6-yl)phenyl]methanol], the IC50 is 0.95 µM.
`COc1cc(C(=O)N2CCC[C@@H](N)C2)cn2nc(-c3cc4ccc(-c5ccc(CNC(C)=O)cc5)cc4n3CC3CC3)c(C)c12` [Example 228, N-{[4-(2-{6-[(3R)-3-Aminopiperidine-1-carbonyl]-4-methoxy-3-methylpyrazolo[1,5-a]pyridin-2-yl}-1-(cyclopropylmethyl)-1H-indol-6-yl)phenyl]methyl}acetamide]: the half-maximal inhibitory concentration (IC50) is 0.93 µM.
The figure for `COc1cc(C(=O)N2CCC[C@@H](N)C2)cn2nc(-c3cc4ccc(-c5ccc(C(N)=O)cc5)cc4n3CC3CC3)c(C)c12` [Example 229, 4-(2-{6-[(3R)-3-Aminopiperidine-1-carbonyl]-4-methoxy-3-methylpyrazolo[1,5-a]pyridin-2-yl}-1-(cyclopropylmethyl)-1H-indol-6-yl)benzamide] is 0.13 µM; for `COc1cc(C(=O)N2CCC[C@@H](N)C2)cn2nc(-c3cc4ccc(-c5ccc(C(=O)N(C)C)cc5)cc4n3CC3CC3)c(C)c12` [Example 230, 4-(2-{6-[(3R)-3-Aminopiperidine-1-carbonyl]-4-methoxy-3-methylpyrazolo[1,5-a]pyridin-2-yl}-1-(cyclopropylmethyl)-1H-indol-6-yl)-N,N-dimethylbenzamide] it is 0.32 µM.
The figure for `COc1cc(C(=O)N2CCC[C@@H](N)C2)cn2nc(-c3cc4ccc(-c5ccc(NS(C)(=O)=O)cc5)cc4n3CC3CC3)c(C)c12` [Example 231, N-[4-(2-{6-[(3R)-3-Aminopiperidine-1-carbonyl]-4-methoxy-3-methylpyrazolo[1,5-a]pyridin-2-yl}-1-(cyclopropylmethyl)-1H-indol-6-yl)phenyl]methanesulfonamide] is 0.46 µM; for `COc1cc(C(=O)N2CCC[C@@H](N)C2)cn2nc(-c3cc4ccc(-c5cccc(CNC(C)=O)c5)cc4n3CC3CC3)c(C)c12` [Example 232, N-{[3-(2-{6-[(3R)-3-Aminopiperidine-1-carbonyl]-4-methoxy-3-methylpyrazolo[1,5-a]pyridin-2-yl}-1-(cyclopropylmethyl)-1H-indol-6-yl)phenyl]methyl}acetamide] it is 0.9 µM.
The figure for `COc1cc(C(=O)N2CCC[C@@H](N)C2)cn2nc(-c3cc4ccc(-c5ccccc5CO)cc4n3CC3CC3)c(C)c12` [Example 233, [2-(2-{6-[(3R)-3-Aminopiperidine-1-carbonyl]-4-methoxy-3-methylpyrazolo[1,5-a]pyridin-2-yl}-1-(cyclopropylmethyl)-1H-indol-6-yl)phenyl]methanol] is 0.62 µM; for `COc1cc(C(=O)N2CCC[C@@H](N)C2)cn2nc(-c3cc4ccc(-c5ccc(CNS(C)(=O)=O)cc5)cc4n3CC3CC3)c(C)c12` [Example 234, N-{[4-(2-{6-[(3R)-3-Aminopiperidine-1-carbonyl]-4-methoxy-3-methylpyrazolo[1,5-a]pyridin-2-yl}-1-(cyclopropylmethyl)-1H-indol-6-yl)phenyl]methyl}methanesulfonamide] it is 1.14 µM.
For `COc1cc(C(=O)N2CCC[C@@H](N)C2)cn2nc(-c3cc4ccc(-c5cccc(CNS(C)(=O)=O)c5)cc4n3CC3CC3)c(C)c12` [Example 235, N-{[3-(2-{6-[(3R)-3-Aminopiperidine-1-carbonyl]-4-methoxy-3-methylpyrazolo[1,5-a]pyridin-2-yl}-1-(cyclopropylmethyl)-1H-indol-6-yl)phenyl]methyl}methanesulfonamide], the IC50 was 0.25 µM.
The figure for `COc1cc(C(=O)N2CCC[C@@H](N)C2)cn2nc(-c3cc4ccc(-c5ccccc5C(N)=O)cc4n3CC3CC3)c(C)c12` [Example 237, 2-(2-{6-[(3R)-3-Aminopiperidine-1-carbonyl]-4-methoxy-3-methylpyrazolo[1,5-a]pyridin-2-yl}-1-(cyclopropylmethyl)-1H-indol-6-yl)benzamide] is 0.25 µM; for `COc1cc(C(=O)N2CCC[C@@H](N)C2)cn2nc(-c3cc4ccc(-c5cccc6[nH]ncc56)cc4n3CC3CC3)c(C)c12` [Example 238, (3R)-1-{2-[1-(Cyclopropylmethyl)-6-(1H-indazol-4-yl)-1H-indol-2-yl]-4-methoxy-3-methylpyrazolo[1,5-a]pyridine-6-carbonyl}piperidin-3-amine] it is 0.42 µM.
The figure for `COc1cc(C(=O)N2CCC[C@@H](N)C2)cn2nc(-c3cc4ccc(-c5cc(F)c6[nH]c(=O)ccc6c5C)cc4n3CC3CC3)c(C)c12` [Example 239, 6-(2-{6-[(3R)-3-Aminopiperidine-1-carbonyl]-4-methoxy-3-methylpyrazolo[1,5-a]pyridin-2-yl}-1-(cyclopropylmethyl)-1H-indol-6-yl)-8-fluoro-5-methyl-1,2-dihydroquinolin-2-one] is 0.07 µM.
For `COc1cc(C(=O)N2CCC[C@@H](N)C2)cn2nc(-c3cc4ccc(-c5ccc(NC(C)=O)nc5)cc4n3CC3CC3)c(C)c12` [Example 240, N-[5-(2-{6-[(3R)-3-Aminopiperidine-1-carbonyl]-4-methoxy-3-methylpyrazolo[1,5-a]pyridin-2-yl}-1-(cyclopropylmethyl)-1H-indol-6-yl)pyridin-2-yl]acetamide] the value was 0.18 µM; for `COc1cc(C(=O)N2C[C@H](N)C[C@@H](F)C2)cn2nc(-c3cc4ccc(N5CCC(C(=O)N(C)C)CC5)cc4n3CC3CC3)c(C)c12` [Example 242, 1-(2-{6-[(3R,5R)-3-Amino-5-fluoropiperidine-1-carbonyl]-4-methoxy-3-methylpyrazolo[1,5-a]pyridin-2-yl}-1-(cyclopropylmethyl)-1H-indol-6-yl)-N,N-dimethylpiperidine-4-carboxamide], 0.09 µM; for `COc1cc(C(=O)N2C[C@H](N)C[C@@H](F)C2)cn2nc(-c3cc4ccc(N5CCC(N(C)C(C)=O)CC5)cc4n3CC3CC3)c(C)c12` [Example 243, N-[1-(2-{6-[(3R,5R)-3-Amino-5-fluoropiperidine-1-carbonyl]-4-methoxy-3-methylpyrazolo[1,5-a]pyridin-2-yl}-1-(cyclopropylmethyl)-1H-indol-6-yl)piperidin-4-yl]-N-methylacetamide], 4.12 µM.
With `COc1cc(C(=O)N2C[C@H](N)C[C@@H](F)C2)cn2nc(-c3cc4ccc(N5CCC(N(C)C(C)=O)CC5)cc4n3CC3CC3)c(C)c12` [Example 244, N-[1-(2-{6-[(3R,5R)-3-Amino-5-fluoropiperidine-1-carbonyl]-4-methoxy-3-methylpyrazolo[1,5-a]pyridin-2-yl}-1-(cyclopropylmethyl)-1H-indol-6-yl)piperidin-4-yl]-N-methylacetamide], the IC50 worked out at 0.07 µM.
For `COC(=O)N(C)C1CCN(c2ccc3cc(-c4nn5cc(C(=O)N6C[C@H](N)C[C@@H](F)C6)cc(OC)c5c4C)n(CC4CC4)c3c2)CC1` [Example 245, Methyl N-[1-(2-{6-[(3R,5R)-3-amino-5-fluoropiperidine-1-carbonyl]-4-methoxy-3-methylpyrazolo[1,5-a]pyridin-2-yl}-1-(cyclopropylmethyl)-1H-indol-6-yl)piperidin-4-yl]-N-methylcarbamate] the value was 0.07 µM.
The figure for `COc1cc(C(=O)N2C[C@H](N)C[C@@H](F)C2)cn2nc(-c3cc4ccc(N5CCC(N(C)S(C)(=O)=O)CC5)cc4n3CC3CC3)c(C)c12` [Example 246, N-[1-(2-{6-[(3R,5R)-3-Amino-5-fluoropiperidine-1-carbonyl]-4-methoxy-3-methylpyrazolo[1,5-a]pyridin-2-yl}-1-(cyclopropylmethyl)-1H-indol-6-yl)piperidin-4-yl]-N-methylmethanesulfonamide] is 0.13 µM.
The figure for `COc1cc(C(=O)N2C[C@H](N)C[C@@H](F)C2)cn2nc(-c3cc4ccc(N5CC(N(C)S(C)(=O)=O)C5)cc4n3CC3CC3)c(C)c12` [Example 247, N-[1-(2-{6-[(3R,5R)-3-Amino-5-fluoropiperidine-1-carbonyl]-4-methoxy-3-methylpyrazolo[1,5-a]pyridin-2-yl}-1-(cyclopropylmethyl)-1H-indol-6-yl)azetidin-3-yl]-N-methylmethanesulfonamide] is 0.12 µM.
With `COc1cc(C(=O)N2CCC[C@@H](N)C2)cn2nc(-c3cc4ccc(N5CCC(S(C)(=O)=O)CC5)cc4n3CC3CC3)c(C)c12` [Example 248, (3R)-1-{2-[1-(Cyclopropylmethyl)-6-(4-methanesulfonylpiperidin-1-yl)-1H-indol-2-yl]-4-methoxy-3-methylpyrazolo[1,5-a]pyridine-6-carbonyl}piperidin-3-amine], the IC50 stood at 0.06 µM.
`COc1cc(C(=O)N2CCC[C@@H](N)C2)cn2nc(-c3cc4ccc(N5CCC(OC)CC5)cc4n3CC3CC3)c(C)c12` [Example 249, (3R)-1-{2-[1-(Cyclopropylmethyl)-6-(4-methoxypiperidin-1-yl)-1H-indol-2-yl]-4-methoxy-3-methylpyrazolo[1,5-a]pyridine-6-carbonyl}piperidin-3-amine]: the IC50 was 0.08 µM.
For `COc1cc(C(=O)N2CCC[C@@H](N)C2)cn2nc(-c3cc4ccc(N5CCC(CC(=O)N(C)C)CC5)cc4n3CC3CC3)c(C)c12` [Example 250, 2-[1-(2-{6-[(3R)-3-Aminopiperidine-1-carbonyl]-4-methoxy-3-methylpyrazolo[1,5-a]pyridin-2-yl}-1-(cyclopropylmethyl)-1H-indol-6-yl)piperidin-4-yl]-N,N-dimethylacetamide] the value was 0.09 µM; for `COc1cc(C(=O)N2CCC[C@@H](N)C2)cn2nc(-c3cc4ccc(N5CCC(C(=O)N6CC(OC)C6)CC5)cc4n3CC3CC3)c(C)c12` [Example 251, (3R)-1-{2-[1-(Cyclopropylmethyl)-6-[4-(3-methoxyazetidine-1-carbonyl)piperidin-1-yl]-1H-indol-2-yl]-4-methoxy-3-methylpyrazolo[1,5-a]pyridine-6-carbonyl}piperidin-3-amine], 0.18 µM.
